Our source for the Relative PT values is ChEMBL document CHEMBL1131152, “In vitro and in vivo activities of oligodeoxynucleotide-based thrombin inhibitors containing neutral formacetal linkages” (J Med Chem, 1998).

This test deals with Prothrombin (Homo sapiens) (UniProt P00734). Description: Relative prothrombin time was determined as the activity of the test ODN (oligodeoxynucleotide) relative to that of GS-522.
Regarding `Cc1cn([C@H]2C[C@H](OCOC[C@H]3O[C@@H](n4cc(C)c(=O)[nH]c4=O)C[C@@H]3OP(=O)(O)OC[C@H]3O[C@@H](n4cnc5c(=O)nc(N)[nH]c54)C[C@@H]3OP(=O)(O)OC[C@H]3O[C@@H](n4cnc5c(=O)[nH]c(=N)[nH]c54)C[C@@H]3OP(=O)(O)OC[C@H]3O[C@@H](n4cc(C)c(=O)[nH]c4=O)C[C@@H]3OP(=O)(O)OC[C@H]3O[C@@H](n4cnc5c(=O)[nH]c(=N)[nH]c54)C[C@@H]3OP(=O)(O)OC[C@H]3O[C@@H](n4cc(C)c(=O)[nH]c4=O)C[C@@H]3OP(=O)(O)OC[C@H]3O[C@@H](n4cnc5c(=O)nc(N)[nH]c54)C[C@@H]3OP(=O)(O)OC[C@H]3O[C@@H](n4cnc5c(=O)[nH]c(=N)[nH]c54)C[C@@H]3OP(=O)(O)OC[C@H]3O[C@@H](n4cc(C)c(=O)[nH]c4=O)C[C@@H]3OCOC[C@H]3O[C@@H](n4cc(C)c(=O)[nH]c4=O)C[C@@H]3OP(=O)(O)OC[C@H]3O[C@@H](n4cnc5c(=O)[nH]c(=N)[nH]c54)C[C@@H]3OP(=O)(O)OC[C@H]3O[C@@H](n4cnc5c(=O)nc(N)[nH]c54)C[C@@H]3O)[C@@H](COP(=O)(O)O[C@H]3C[C@H](n4cnc5c(=O)[nH]c(=N)[nH]c54)O[C@@H]3COP(=O)(O)O[C@H]3C[C@H](n4cnc5c(=O)nc(N)[nH]c54)O[C@@H]3COP(=O)(O)O)O2)c(=O)[nH]c1=O`, the Relative PT worked out at 1.1.
With `Cc1cn([C@H]2C[C@H](OP(=O)(O)OC[C@H]3O[C@@H](n4cnc5c(=O)nc(N)[nH]c54)C[C@@H]3OCOC[C@H]3O[C@@H](n4cnc5c(=O)[nH]c(=N)[nH]c54)C[C@@H]3OP(=O)(O)OC[C@H]3O[C@@H](n4cc(C)c(=O)[nH]c4=O)C[C@@H]3OP(=O)(O)OC[C@H]3O[C@@H](n4cnc5c(O)nc(=N)[nH]c54)C[C@@H]3OP(=O)(O)OC[C@H]3O[C@@H](n4cc(C)c(=O)[nH]c4=O)C[C@@H]3OP(=O)(O)OC[C@H]3O[C@@H](n4cnc5c(=O)nc(N)[nH]c54)C[C@@H]3OP(=O)(O)OC[C@H]3O[C@@H](n4cnc5c(=O)[nH]c(=N)[nH]c54)C[C@@H]3OP(=O)(O)OC[C@H]3O[C@@H](n4cc(C)c(=O)[nH]c4=O)C[C@@H]3OP(=O)(O)OC[C@H]3O[C@@H](n4cc(C)c(=O)[nH]c4=O)C[C@@H]3OP(=O)(O)OC[C@H]3O[C@@H](n4cnc5c(=O)[nH]c(=N)[nH]c54)C[C@@H]3OP(=O)(O)OC[C@H]3O[C@@H](n4cnc5c(=O)nc(N)[nH]c54)C[C@@H]3O)[C@@H](COP(=O)(O)O[C@H]3C[C@H](n4cc(C)c(=O)[nH]c4=O)O[C@@H]3COP(=O)(O)O[C@H]3C[C@H](n4cnc5c(=O)nc(N)[nH]c54)O[C@@H]3COCO[C@H]3C[C@H](n4cnc5c(=O)[nH]c(=N)[nH]c54)O[C@@H]3COP(=O)(O)O)O2)c(=O)[nH]c1=O` the figure was 0.6.
As for `Cc1cn([C@H]2C[C@H](OCOC[C@H]3O[C@@H](n4cnc5c(=O)nc(N)[nH]c54)C[C@@H]3OP(=O)(O)OC[C@H]3O[C@@H](n4cnc5c(=O)[nH]c(=N)[nH]c54)C[C@@H]3OP(=O)(O)OC[C@H]3O[C@@H](n4cc(C)c(=O)[nH]c4=O)C[C@@H]3OP(=O)(O)OC[C@H]3O[C@@H](n4cnc5c(=O)[nH]c(=N)[nH]c54)C[C@@H]3OP(=O)(O)OC[C@H]3O[C@@H](n4cc(C)c(=O)[nH]c4=O)C[C@@H]3OP(=O)(O)OC[C@H]3O[C@@H](n4cnc5c(=O)nc(N)[nH]c54)C[C@@H]3OP(=O)(O)OC[C@H]3O[C@@H](n4cnc5c(=O)[nH]c(=N)[nH]c54)C[C@@H]3OP(=O)(O)OC[C@H]3O[C@@H](n4cc(C)c(=O)[nH]c4=O)C[C@@H]3OP(=O)(O)OC[C@H]3O[C@@H](n4cc(C)c(=O)[nH]c4=O)C[C@@H]3OCOC[C@H]3O[C@@H](n4cnc5c(=O)[nH]c(=N)[nH]c54)C[C@@H]3OP(=O)(O)OC[C@H]3O[C@@H](n4cnc5c(=O)nc(N)[nH]c54)C[C@@H]3O)[C@@H](COP(=O)(O)O[C@H]3C[C@H](n4cc(C)c(=O)[nH]c4=O)O[C@@H]3COP(=O)(O)O[C@H]3C[C@H](n4cnc5c(=O)nc(N)[nH]c54)O[C@@H]3COP(=O)(O)O[C@H]3C[C@H](n4cnc5c(=O)[nH]c(=N)[nH]c54)O[C@@H]3COP(=O)(O)O)O2)c(=O)[nH]c1=O`, the Relative PT was 0.3.
For `Cc1cn([C@H]2C[C@H](OCOC[C@H]3O[C@@H](n4cnc5c(=O)nc(N)[nH]c54)C[C@@H]3OP(=O)(O)OC[C@H]3O[C@@H](n4cnc5c(=O)[nH]c(=N)[nH]c54)C[C@@H]3OP(=O)(O)OC[C@H]3O[C@@H](n4cc(C)c(=O)[nH]c4=O)C[C@@H]3OP(=O)(O)OC[C@H]3O[C@@H](n4cnc5c(=O)[nH]c(=N)[nH]c54)C[C@@H]3OP(=O)(O)OC[C@H]3O[C@@H](n4cc(C)c(=O)[nH]c4=O)C[C@@H]3OP(=O)(O)OC[C@H]3O[C@@H](n4cnc5c(=O)nc(N)[nH]c54)C[C@@H]3OP(=O)(O)OC[C@H]3O[C@@H](n4cnc5c(=O)[nH]c(=N)[nH]c54)C[C@@H]3OP(=O)(O)OC[C@H]3O[C@@H](n4cc(C)c(=O)[nH]c4=O)C[C@@H]3OP(=O)(O)OC[C@H]3O[C@@H](n4cc(C)c(=O)[nH]c4=O)C[C@@H]3OP(=O)(O)OC[C@H]3O[C@@H](n4cnc5c(=O)[nH]c(=N)[nH]c54)C[C@@H]3OP(=O)(O)OC[C@H]3O[C@@H](n4cnc5c(=O)nc(N)[nH]c54)C[C@@H]3O)[C@@H](COP(=O)(O)O[C@H]3C[C@H](n4cc(C)c(=O)[nH]c4=O)O[C@@H]3COP(=O)(O)O[C@H]3C[C@H](n4cnc5c(=O)nc(N)[nH]c54)O[C@@H]3COP(=O)(O)O[C@H]3C[C@H](n4cnc5c(=O)nc(N)[nH]c54)O[C@@H]3COP(=O)(O)O)O2)c(=O)[nH]c1=O`, the Relative PT amounted to 0.7.
Regarding `Cc1cn([C@H]2C[C@H](OCOC[C@H]3O[C@@H](n4cc(C)c(=O)[nH]c4=O)C[C@@H]3OP(=O)(O)OC[C@H]3O[C@@H](n4cnc5c(=O)[nH]c(=N)[nH]c54)C[C@@H]3OP(=O)(O)OC[C@H]3O[C@@H](n4cnc5c(=O)nc(N)[nH]c54)C[C@@H]3O)[C@@H](COP(=O)(O)O[C@H]3C[C@H](n4cnc5c(=O)[nH]c(=N)[nH]c54)O[C@@H]3COP(=O)(O)O[C@H]3C[C@H](n4cnc5c(=O)nc(N)[nH]c54)O[C@@H]3COP(=O)(O)O[C@H]3C[C@H](n4cc(C)c(=O)[nH]c4=O)O[C@@H]3COP(=O)(O)O[C@H]3C[C@H](n4cnc5c(=O)[nH]c(=N)[nH]c54)O[C@@H]3COP(=O)(O)O[C@H]3C[C@H](n4cc(C)c(=O)[nH]c4=O)O[C@@H]3COP(=O)(O)O[C@H]3C[C@H](n4cnc5c(=O)[nH]c(=N)[nH]c54)O[C@@H]3COP(=O)(O)O[C@H]3C[C@H](n4cnc5c(=O)nc(N)[nH]c54)O[C@@H]3COP(=O)(O)O[C@H]3C[C@H](n4cc(C)c(=O)[nH]c4=O)O[C@@H]3COP(=O)(O)O[C@H]3C[C@H](n4cc(C)c(=O)[nH]c4=O)O[C@@H]3COP(=O)(O)O[C@H]3C[C@H](n4cnc5c(=O)nc(N)[nH]c54)O[C@@H]3COP(=O)(O)O[C@H]3C[C@H](n4cnc5c(=O)nc(N)[nH]c54)O[C@@H]3COP(=O)(O)O)O2)c(=O)[nH]c1=O`, the Relative PT is 1.1.
`Cc1cn([C@H]2C[C@H](OCOC[C@H]3O[C@@H](n4cnc5c(=O)nc(N)[nH]c54)C[C@@H]3OP(=O)(O)OC[C@H]3O[C@@H](n4cnc5c(=O)[nH]c(=N)[nH]c54)C[C@@H]3OP(=O)(O)OC[C@H]3O[C@@H](n4cc(C)c(=O)[nH]c4=O)C[C@@H]3OP(=O)(O)OC[C@H]3O[C@@H](n4cc(C)c(=O)[nH]c4=O)C[C@@H]3O[PH](O)(O)OC[C@H]3O[C@@H](n4cnc5c(=O)[nH]c(=N)[nH]c54)C[C@@H]3OP(=O)(O)OC[C@H]3O[C@@H](n4cnc5c(=O)nc(N)[nH]c54)C[C@@H]3O)[C@@H](COP(=O)(O)O[C@H]3C[C@H](n4cnc5c(=O)[nH]c(=N)[nH]c54)O[C@@H]3COCO[C@H]3C[C@H](n4cc(C)c(=O)[nH]c4=O)O[C@@H]3COP(=O)(O)O[C@H]3C[C@H](n4cnc5c(=O)[nH]c(=N)[nH]c54)O[C@@H]3COP(=O)(O)O[C@H]3C[C@H](n4cnc5c(=O)nc(N)[nH]c54)O[C@@H]3COP(=O)(O)O[C@H]3C[C@H](n4cc(C)c(=O)[nH]c4=O)O[C@@H]3COP(=O)(O)O[C@H]3C[C@H](n4cc(C)c(=O)[nH]c4=O)O[C@@H]3COP(=O)(O)O[C@H]3C[C@H](n4cnc5c(=O)nc(N)[nH]c54)O[C@@H]3COP(=O)(O)O[C@H]3C[C@H](n4cnc5c(=O)nc(N)[nH]c54)O[C@@H]3COP(=O)(O)O)O2)c(=O)[nH]c1=O` yielded a Relative PT of 0.7.
With `Cc1cn([C@H]2C[C@H](OP(=O)(O)OC[C@H]3O[C@@H](n4cnc5c(=O)nc(N)[nH]c54)C[C@@H]3OP(=O)(O)OC[C@H]3O[C@@H](n4cnc5c(=O)[nH]c(=N)[nH]c54)C[C@@H]3OP(=O)(O)OC[C@H]3O[C@@H](n4cc(C)c(=O)[nH]c4=O)C[C@@H]3OP(=O)(O)OC[C@H]3O[C@@H](n4cnc5c(=O)nc(N)[nH]c54)C[C@@H]3OP(=O)(O)OC[C@H]3O[C@@H](n4cc(C)c(=O)[nH]c4=O)C[C@@H]3OP(=O)(O)OC[C@H]3O[C@@H](n4cnc5c(=O)nc(N)[nH]c54)C[C@@H]3OCOC[C@H]3O[C@@H](n4cnc5c(=O)[nH]c(=N)[nH]c54)C[C@@H]3OP(=O)(O)OC[C@H]3O[C@@H](n4cc(C)c(=O)[nH]c4=O)C[C@@H]3OP(=O)(O)OC[C@H]3O[C@@H](n4cc(C)c(=O)[nH]c4=O)C[C@@H]3OP(=O)(O)OC[C@H]3O[C@@H](n4cnc5c(=O)[nH]c(=N)[nH]c54)C[C@@H]3OP(=O)(O)OC[C@H]3O[C@@H](n4cnc5c(=O)nc(N)[nH]c54)C[C@@H]3O)[C@@H](COP(=O)(O)O[C@H]3C[C@H](n4cc(C)c(=O)[nH]c4=O)O[C@@H]3COP(=O)(O)O[C@H]3C[C@H](n4cnc5c(=O)[nH]c(=N)[nH]c54)O[C@@H]3COP(=O)(O)O[C@H]3C[C@H](n4cnc5c(=O)nc(N)[nH]c54)O[C@@H]3COP(=O)(O)O)O2)c(=O)[nH]c1=O` the figure was 0.8.
